Source: patent publication US6956046B2, “4-hydroxypiperidine derivatives having analgesic activity” (priority 2001, dated 2005)

Legend:
[1] = test system: formalin-induced nociceptive response in rats; assay: Inhibitory effect on the formalin-induced nociceptive response in rats; assay type: in vivo, rat; details: oral, 30 minutes before subcutaneous formalin; probit method
Experimental: [Inhibitory Effect on the Formalin-induced Nociceptive Response in Rats]
The experiment was undertaken by the method disclosed by Doak et al., Eur. J. Pharmacol. 281:311, 1995. Specifically, 50 μL of 0.5% formalin solution was subcutaneously injected into the left foot pad of the rat, and then each behavior of the rat consisting of the licking or biting of the pad immediately following the injection was checked with a stopwatch for its duration, and its cumulative duration was recorded at five minute intervals. The nociceptive response observed in 10 minutes after the injection was termed a first-phase response while the response observed between 10 minutes and 45 minutes after the injection was termed a second-phase response. The test compound was orally applied to the rat 30 minutes before the subcutaneous injection of formalin. Then, the inhibitory effect of the test compound on the nociceptive response induced by the formalin injection was calculated according to the following formula and 30% inhibition dose (ED30 value) was determined by the probit method. To mention, for illustration, ED30 value of carbamazepine was 27 mg/kg. Percent inhibition (%)=[(PRcontrol−PRtest)/PRcontrol]×100 wherein PRtest is the response time (sec) of the test group which received formalin and the test compound, while PRcontol is the response time of the control group which. received formalin and vehicle.

[2] = test system: rat model made by loosely constricting the sciatic nerve; assay: Efficacy in the rat model made by loosely constricting the sciatic nerve (von Frey response threshold); assay type: in vivo; details: for Mean threshold (g) Injured foot (left) / Mean threshold (g) Normal foot (right): one hour after dosing
Experimental: [Efficacy in the Rat Model Made by Loosely Constricting the Sciatic Nerve]
Preparation of the rat pain model based on the constriction of the sciatic nerve was performed by the method introduced by Bennett et al. (“Pain,” 33:87, 1988). Specifically, the rat was anesthetized with i.p. injection of pentobarbital sodium at 40 mg/kg; the overlying skin was cut open; and the left biceps femoris muscle was bluntly separated. The sciatic nerve was isolated from surrounding tissues; it was gently constricted at four sites about 1 mm apart from each other by the use of surgical gut sutures (4-0 or 3-0 chromic gut); the operated part was closed; and the rat was returned to its cage for further feeding. For the rat belonging to the sham-surgery group, the same operation was performed except that the sciatic nerve was left untouched. Two weeks after the surgery, the response threshold to a mechanical stimulus consisting of touch with von Frey filaments was determined. The test proceeded as follows: the test compound was orally applied to the rat having the sciatic nerve constricted; one hour later, von Frey hairs were applied against the foot pad (spots ranging from heel to the mid-point of foot) one after another in an ascending order of their stiffness; if the rat raises its foot when a certain von Frey hair was applied, the stimulus intensity of that hair was taken as the response threshold (maximum stimulus intensity being 28.84 g).

[3] = test system: Wistar Hannover female rats; assay: Toxicological study, oral, rats; assay type: in vivo, rat
Experimental: The compounds of Example 8 or Example 12 were orally given to 6 week-old Wistar Hannover female rats at 40 mg/kg/day.
The compound of Example 29 was orally given to 6 week-old Wistar Hannover female rats at 400 mg/Kg/day once daily for 14 days, respectively.

rhesus male monkeys = assay: Toxicological study, oral, 14 days, monkeys; assay type: in vivo, rhesus monkey; details: for survival: until 24 hours after final administration
Experimental: The compound Example 12 or Example 29 were orally given to 3 year-old rhesus male monkeys at 20 mg/Kg/day and 40 mg/Kg/day, respectively, once daily for 14 days.

rhesus male monkey = assay: Holter ECG test; assay type: in vivo; details: oral 80 mg/Kg, 4 year-old rhesus male monkey
Experimental: In Holter ECG test, the compound of Example 12 or Example 29 were orally given to 4 year-old rhesus male monkey at 80 mg/Kg. There was no effect in electrocardiogram.

[4] = Pharmacokinetics: plasma concentration after a single oral administration; assay type: in vivo; details: male rhesus monkey
Excerpt: The compound of Example 12 or Example 29 were studied about time-course profile of plasma concentration after a single oral administration to 3 or 4 year-old male rhesus monkey. […] Therefore, it can be considered to cause unlikely the drug-drug interaction by the compounds. […] Therefore, it can be considered that the compounds are unlikely metabolized by first pass effect.

[5] = test system: human-drug metabolizing enzymes; assay: Inhibitory effect on human-drug metabolizing enzymes; assay type: in vitro ADME
[6] = Metabolic stability in human liver microsomes and hepatocytes; assay type: in vitro ADME
[7] = Metabolic stability in monkey liver microsomes and hepatocytes; assay type: in vitro ADME
[8] = Metabolic stability in dog liver microsomes and hepatocytes; assay type: in vitro ADME
[9] = Metabolic stability in rat liver microsomes and hepatocytes; assay type: in vitro ADME
[10] = oral 40 mg/kg/day, 6 week-old female rats
[11] = oral 40 mg/kg/day, 6 week-old female rats, examination period
[12] = oral 20 mg/Kg/day once daily for 14 days
[13] = oral 400 mg/Kg/day once daily for 14 days
[14] = oral 40 mg/Kg/day once daily for 14 days

## Cl.N#Cc1ccc(CCN2CCC(O)(COc3ccc(C(N)=O)cc3)CC2)cc1
other
  melting point: 251 to 254.9 °C

## CN(CC1(O)CCN(CCc2ccc(C#N)cc2)CC1)c1cccc(C(=O)O)c1.Cl
other
  melting point: 125.5 to 129.7 °C

## CN(CC1(O)CCN(CCc2ccc(C#N)cc2)CC1)c1ccccc1C(=O)O.Cl
other
  melting point: 195.3 to 200.6 °C

## CN(CC1(O)CCN(CCc2ccc(C#N)cc2)CC1)c1ccc([N+](=O)[O-])cc1.Cl
other
  melting point: 169.8 to 173.6 °C

## Cl.N#Cc1ccc(CCN2CCC(O)(CNc3ccc(C(=O)O)cc3)CC2)cc1
other
  melting point: 247.7 to 253.2 °C

## CN(CC1(O)CCN(CCc2ccc(S(C)(=O)=O)cc2)CC1)c1ccc(C(=O)O)cc1.Cl
other
  melting point: 246.5 to 249.6 °C

## CN(CC1(O)CCN(CCc2ccccc2)CC1)c1ccc(C(=O)O)cc1.Cl
other
  melting point: 242.5 to 245 °C

## CN(CC1(O)CCN(CCc2cccc(C#N)c2)CC1)c1ccc(C(=O)O)cc1.Cl
other
  melting point: 166.8 to 176.4 °C

## CN(CC1(O)CCN(CCc2ccccc2C#N)CC1)c1ccc(C(=O)O)cc1.Cl
other
  melting point: 197.2 to 222.4 °C

## Cl.N#Cc1ccc(CCN2CCC(O)(COc3ccc(O)cc3)CC2)cc1
other
  melting point: 253 to 255.6 °C

## COC(=O)c1ccc(OCC2(O)CCN(CCc3ccc(C#N)cc3)CC2)cc1.Cl
other
  melting point: 183.7 to 189.7 °C

## NC(=O)N1c2ccccc2C=Cc2ccccc21 [Carbamazepine, carbamazepine, reference compound]
[1]
  ED30 value (30% inhibition dose): 27 mg/kg
[2]; dose 30 mg/kg oral
  Mean threshold (g) Injured foot (left): 9.01 g
  Mean threshold (g) Normal foot (right): 20.53 g
[2]; injured side
  threshold of the injured paw to a mechanical stimulus (in words): significantly raised
[2]; normal side
  response threshold of the normal paw (in words): significantly raised

## N#Cc1ccc(CCN2CCC(O)(COc3ccc(C(N)=O)cc3)CC2)cc1 [Example 5, 4-(4-carbamoylphenoxymethyl)-1-[2-(4-cyanophenyl)ethyl]-piperidin-4-ol]
other
  melting point: 192.1 to 193.2 °C

## N#Cc1ccc(CCN2CCC(O)(COc3ccc([N+](=O)[O-])cc3)CC2)cc1 [Example 6, 1-[2-(4-cyanophenyl)ethyl)-4-(4-nitrophenoxymethyl)piperidin-4-ol]
other
  melting point: 134.7 to 156.7 °C

## Cl.N#Cc1ccc(CCN2CCC(O)(COc3ccc(CO)cc3)CC2)cc1 [Example 8, 1-[2-(4-cyanophenyl)ethyl]-4-(4-hydroxymethylphenoxymethyl)piperidin-4-ol hydrochloride]
[3]; [10]
  general appearance: no abnormalities
[3]; [11]
  survival: all the rats survived

## Cl.N#Cc1ccc(CCN2CCC(O)(COc3ccc([N+](=O)[O-])cc3)CC2)cc1 [Example 11, 1-[2-(4-cyanophenyl)ethyl]-4-(4-nitrophenoxymethyl)piperidin-4-ol hydrochloride]
[1]
  ED30 value (30% inhibition dose): 0.047 mg/kg
other
  melting point: 219.6 to 221.3 °C

## Cl.N#Cc1ccc(CCN2CCC(O)(COc3ccc(C(=O)O)cc3)CC2)cc1 [Example 12, 4-{1-[2-(4-cyanophenyl)ethyl]-4-hydroxypiperidin-4-ylmethoxy}benzoic acid hydrochloride]
[1]
  ED30 value (30% inhibition dose): 2.0 mg/kg
[2]; dose 1 mg/kg oral
  Mean threshold (g) Injured foot (left): 7.96 g
  Mean threshold (g) Normal foot (right): 14.29 g
[2]; dose 3 mg/kg oral
  Mean threshold (g) Injured foot (left): 8.92 g
  Mean threshold (g) Normal foot (right): 14.71 g
[2]; dose 10 mg/kg oral
  Mean threshold (g) Injured foot (left): 10.96 g
  Mean threshold (g) Normal foot (right): 14.29 g
[3]; [10]
  general appearance: no abnormalities
[3]; [11]
  survival: all the rats survived
Rhesus male monkeys; [12]
  general appearances, body weight gains and food consumptions: no abnormalities
  hematology, biochemistry, organ weight, and histopathology: No abnormal findings
  survival: All the monkeys survived
Rhesus male monkey
  effect in electrocardiogram: no effect
[4]
  bioavailability: very good bioavailability
  maximum plasma concentration (Cmax) and area under the plasma concentration-time curve (AUC) versus dose: increased almostly in proportion to the doses
[5]
  inhibitory effect on human-drug metabolizing enzymes: no serious inhibitory effect
[6]
  metabolic stability: metabolically stable
[7]
  metabolic stability: metabolically stable
[8]
  metabolic stability: metabolically stable
[9]
  metabolic stability: metabolically stable

## CN(CC1(O)CCN(CCc2ccc(C#N)cc2)CC1)c1cccc(C(=O)O)c1 [Example 15, 3-({1-[2-(4-cyanophenyl)ethyl]-4-hydroxypiperidin-4-ylmethyl}methylamino)benzoic acid]
other
  melting point: 181.9 to 189.1 °C

## CN(CC1(O)CCN(CCc2ccc(C#N)cc2)CC1)c1ccc([N+](=O)[O-])cc1 [Example 16, 4-[2-(4-hydroxy-4-{[methyl(4-nitrophenyl)amino]methyl}piperidin-1-yl)ethyl]benzonitrile]
other
  melting point: 98.3 to 108.1 °C

## CN(CC1(O)CCN(CCc2ccc(C#N)cc2)CC1)c1ccc(-c2nnn[nH]2)cc1 [Example 17, 4-{2-[4-hydroxy-4-({methyl[4-(1H-tetrazol-5-yl)phenyl]-amino}methyl)piperidin-1-yl]ethyl}benzonitrile]
other
  melting point: 159.7 to 171.8 °C

## CN(CC1(O)CCN(CCc2ccc(C#N)cc2)CC1)c1ccccc1C(=O)O [Example 19, 2-({1-[2-(4-cyanophenyl)ethyl]-4-hydroxypiperidin-4-ylmethyl}methylamino)benzoic acid]
other
  melting point: 106.5 to 116.2 °C

## CN(CC1(O)CCN(CCc2ccc(C#N)cc2)CC1)c1ccc(C(=O)O)cc1.Cl [Example 29, 4-({1-[2-(4-cyanophenyl)ethyl]-4-hydroxypiperidin-4-ylmethyl}methylamino)benzoic acid monohydrochloride]
[1]
  ED30 value (30% inhibition dose): 1.2 mg/kg
[2]; dose 1 mg/kg oral
  Mean threshold (g) Injured foot (left): 5.22 g
  Mean threshold (g) Normal foot (right): 14.12 g
[2]; dose 3 mg/kg oral
  Mean threshold (g) Injured foot (left): 7.09 g
  Mean threshold (g) Normal foot (right): 14.49 g
[2]; dose 10 mg/kg oral
  Mean threshold (g) Injured foot (left): 8.61 g
  Mean threshold (g) Normal foot (right): 15.49 g
[3]; [13]
  general appearances, body weight gains and food consumptions: no abnormalities
  hematology, biochemistry, organ weight, and histopathology: No abnormal findings
[3]; oral 400 mg/Kg/day once daily for 14 days, until 24 hours after final administration
  survival: All the rats survived
Rhesus male monkeys; [14]
  general appearances, body weight gains and food consumptions: no abnormalities
  hematology, biochemistry, organ weight, and histopathology: No abnormal findings
  survival: All the monkeys survived
Rhesus male monkey
  effect in electrocardiogram: no effect
[4]
  bioavailability: very good bioavailability
  maximum plasma concentration (Cmax) and area under the plasma concentration-time curve (AUC) versus dose: increased almostly in proportion to the doses
[5]
  inhibitory effect on human-drug metabolizing enzymes: no serious inhibitory effect
[6]
  metabolic stability: metabolically stable
[7]
  metabolic stability: metabolically stable
[8]
  metabolic stability: metabolically stable
[9]
  metabolic stability: metabolically stable
